Measured values published in article PMC7463537, “Synthesis and Evaluation of Antimicrobial and Cytotoxic Activity of Oxathiine-Fused Quinone-Thioglucoside Conjugates of Substituted 1,4-Naphthoquinones” (Molecules, 2020).

How the values were obtained:
C. albicans KMM 453 = assay: Agar diffusion method, C. albicans; assay type: cell-based; details: Candida albicans, read-out: Diameter of Zone Inhibition, C. albicans; for zone of inhibition at 100 µg/disc: KMM453, 48 h, 100 µg/well, 48 h at 28 °C
Protocol: (§1) Elyakov Pacific Institute of Bioorganic Chemistry, Far East Branch, Russian Academy of Sciences. Test substances were dissolved in DMSO at concentrations of 1.0, 0.1, and 0.01 mg/mL. All strains were grown on trypticase-soy agar TSA (BBL) at 37 °C. […] After incubation of the dishes at 37 °C for 24 h (for bacteria) and 48 h (for the fungus) at 28 °C, the diameters of the growth inhibition zones of pathogenic microorganisms (mm) were measured, including the diameter of the wells. Commercial antibacterial drugs (vancomicin and gentamicin) and antifungal (clotrimazol) drugs were used as positive controls.

S. aureus ATCC 21027 = assay: Agar diffusion method, S. aureus; assay type: cell-based, Staphylococcus aureus; parameters: key to Diameter of Zone Inhibition, S. aureus: Zones within 20–40 mm mean strong antibiotic activity; zones up to 20 mm—moderate; ≤10 mm—weak; +—insignificant; details: for zone of inhibition at 100 µg/disc: ATCC21027, 24 h
Protocol: as §1

B. cereus ATCC 10702 = assay: Agar diffusion method, B. cereus; assay type: cell-based, Bacillus cereus; details: for zone of inhibition at 100 µg/disc: ATCC10702, 24 h, 100 µg/well, 24 h, incl. 7 mm well
Protocol: as §1

P. aeruginosa ATCC 27853 = assay: Agar diffusion method, P. aeruginosa; assay type: cell-based, Pseudomonas aeruginosa; details: for zone of inhibition at 100 µg/disc: ATCC27853, 100 µg/well
Protocol: as §1

E. coli K-12 = assay: Agar diffusion method, E. coli; assay type: cell-based, Escherichia coli
Protocol: as §1

[1] = test system: human cervical cancer (HeLa); assay: Cytotoxicity, MTT assay, HeLa cells; details: for EC50: Homo sapiens, HeLa, 24 h, read-out: Cytotoxicity (EC50), HeLa; for Selectivity Index (SI), HeLa: SI = EC50 (Jb6 Cl 41-5a normal cells)/EC50 (tumor cells)
[2] = test system: mouse neuroblastoma (Neuro 2a); assay: Cytotoxicity, MTT assay, Neuro 2a cells; details: for EC50: N2a, 24 h, read-out: Cytotoxicity (EC50), Neuro 2a; for Selectivity Index (SI), Neuro-2a: SI = EC50 (Jb6 Cl 41-5a normal cells)/EC50 (tumor cells)
[3] = Cytotoxicity, MTT assay, Jb6 Cl 41-5a normal epithelial cells; details: mouse, Jb6 Cl 41-5a normal epithelial cells
[4] = test system: mouse ascites Ehrlich carcinoma; assay: Cytotoxicity, nonspecific esterase (FDA) assay, ascites Ehrlich carcinoma cells; details: for EC50: Mus musculus, Ehrlich, 24 h, read-out: Cytotoxicity (EC50), Ascites Ehrlich Carcinoma; for Selectivity Index (SI), Ascitic Ehrlich Carcinoma: SI = EC50 (Jb6 Cl 41-5a normal cells)/EC50 (tumor cells)
[5] = Staphylococcus aureus, 100 µg/well, 24 h, incl. 7 mm well, read-out: Diameter of Zone Inhibition, S. aureus
[6] = Bacillus cereus, read-out: Diameter of Zone Inhibition, B. cereus
[7] = Pseudomonas aeruginosa, read-out: Diameter of Zone Inhibition, P. aeruginosa
[8] = Escherichia coli, K12, 100 µg/well, read-out: Diameter of Zone Inhibition, E. coli

| Structure (SMILES) | melting point | zone of inhibition at 100 µg/disc (S. aureus ATCC 21027; [5]) [mm] | zone of inhibition at 100 µg/disc (B. cereus ATCC 10702; [6]) [mm] | zone of inhibition at 100 µg/disc (P. aeruginosa ATCC 27853; [7]) [mm] | zone of inhibition at 100 µg/disc (E. coli K-12; [8]) [mm] | zone of inhibition at 100 µg/disc (C. albicans KMM 453) [mm] | EC50 [1] [µM] | EC50 [2] [µM] | EC50 at 24 h [3] [µM] | EC50 [4] [µM] | Selectivity Index (SI), HeLa [1] | Selectivity Index (SI), Neuro-2a [2] | Selectivity Index (SI), Ascitic Ehrlich Carcinoma [4] | other results |
| --- | --- | --- | --- | --- | --- | --- | --- | --- | --- | --- | --- | --- | --- | --- |
| Clc1ccccc1C(c1ccccc1)(c1ccccc1)n1ccnc1 [Clotrimazol (disk), reference compound] |  |  |  |  |  |  |  |  |  |  |  |  |  | zone of inhibition at 10 µg/disc (C. albicans KMM 453; KMM453, 10 µg (disk)): 15 ± 2 mm |
| COc1ccc(OC)c2c1C(=O)C1=C(S[C@@H]3O[C@H](CO)[C@@H](O)[C@H](O)[C@H]3O1)C2=O [Compound 17a, (2R,3S,4S,4aR,12aS)-3,4-Dihydroxy-2-hydroxymethyl-7,10-dimethoxy-3,4,4a,12a-tetrahydro-2H-naphtho[2,3-b]pyrano[2,3-e][2,5]oxathiine-6,11-dione] | 332 to 335 °C | 0 | 0 | 0 | 0 | 0 | > 25 | > 25 | > 25 | > 25 |  |  |  |  |
| COc1ccc(OC)c2c1C(=O)C1=C(S[C@@H]3OC[C@@H](O)[C@H](O)[C@H]3O1)C2=O [Compound 17c, (3R,4S,4aR,12aS)-3,4-Dihydroxy-7,10-dimethoxy-3,4,4a,12a-tetrahydro-2H-naphtho[2,3-b]pyrano[2,3-e][2,5]oxathiine-6,11-dione] | 329 to 332 °C | 0 | 0 | 0 | 0 | 0 | > 25 | > 25 | > 25 | > 25 |  |  |  |  |
| COc1ccc(OC)c2c1C(=O)C1=C(S[C@@H]3OC[C@H](O)[C@H](O)[C@H]3O1)C2=O [Compound 17d, (3S,4S,4aR,12aS)-3,4-Dihydroxy-7,10-dimethoxy-3,4,4a,12a-tetrahydro-2H-naphtho[2,3-b]pyrano[2,3-e][2,5]oxathiine-6,11-dione] | 317 to 320 °C | 0 | 0 | 0 | 0 | ≤ 10 | > 25 | > 25 | > 25 | > 25 |  |  |  |  |
| CNC(C)C1CCC(N)C(OC2C(N)CC(N)C(OC3OCC(C)(O)C(NC)C3O)C2O)O1 (stereo not shown) [Gentamicin (disk), reference compound] |  |  |  |  |  |  |  |  |  |  |  |  |  | zone of inhibition at 10 µg/disc (S. aureus ATCC 21027; Staphylococcus aureus, ATCC21027, 10 µg/well (gentamicin: disk), read-out: Diameter of Zone Inhibition, S. aureus): 25 ± 2 mm; zone of inhibition at 10 µg/disc (B. cereus ATCC 10702; Bacillus cereus, ATCC10702, 10 µg/well (gentamicin: disk), read-out: Diameter of Zone Inhibition, B. cereus): 25 ± 1 mm; zone of inhibition at 10 µg/disc (P. aeruginosa ATCC 27853; Pseudomonas aeruginosa, ATCC27853, 10 µg (disk), read-out: Diameter of Zone Inhibition, P. aeruginosa): 18 ± 2 mm; zone of inhibition at 10 µg/disc (E. coli K-12; Escherichia coli, K12, 10 µg (disk), read-out: Diameter of Zone Inhibition, E. coli): 22 ± 3 mm |
| CN[C@H](CC(C)C)C(=O)N[C@H]1C(=O)N[C@@H](CC(N)=O)C(=O)N[C@H]2C(=O)N[C@H]3C(=O)N[C@H](C(=O)N[C@H](C(=O)O)c4cc(O)cc(O)c4-c4cc3ccc4O)[C@H](O)c3ccc(c(Cl)c3)Oc3cc2cc(c3O[C@@H]2O[C@H](CO)[C@@H](O)[C@H](O)[C@H]2O[C@H]2C[C@](C)(N)[C@H](O)[C@H](C)O2)Oc2ccc(cc2Cl)[C@H]1O [Vancomicin (disk), reference compound] |  |  |  |  |  |  |  |  |  |  |  |  |  | Diameter of Zone Inhibition, S. aureus (S. aureus ATCC 21027; 30 µg (disk)): 20 ± 2 mm; Diameter of Zone Inhibition, B. cereus (B. cereus ATCC 10702; 30 µg (disk)): 20 ± 3 mm; Diameter of Zone Inhibition, P. aeruginosa (P. aeruginosa ATCC 27853; 30 µg (disk)): 0 mm; Diameter of Zone Inhibition, E. coli (E. coli K-12; 30 µg (disk)): 0 mm |

Now from value to compound, other results behind:

| melting point | Structure (SMILES) | zone of inhibition at 100 µg/disc (S. aureus ATCC 21027; [5]) [mm] | zone of inhibition at 100 µg/disc (B. cereus ATCC 10702; [6]) [mm] | zone of inhibition at 100 µg/disc (P. aeruginosa ATCC 27853; [7]) [mm] | zone of inhibition at 100 µg/disc (E. coli K-12; [8]) [mm] | zone of inhibition at 100 µg/disc (C. albicans KMM 453) [mm] | EC50 [1] [µM] | EC50 [2] [µM] | EC50 at 24 h [3] [µM] | EC50 [4] [µM] | Selectivity Index (SI), HeLa [1] | Selectivity Index (SI), Neuro-2a [2] | Selectivity Index (SI), Ascitic Ehrlich Carcinoma [4] | other results |
| --- | --- | --- | --- | --- | --- | --- | --- | --- | --- | --- | --- | --- | --- | --- |
| 222 to 224 °C | COc1c(Cl)c(Cl)c(OC)c2c1C(=O)C1=C(S[C@@H]3O[C@H](CO)[C@@H](O)[C@H](O)[C@H]3O1)C2=O [Compound 18a, (2R,3S,4S,4aR,12aS)-8,9-Dichloro-3,4-dihydroxy-2-hydroxymethyl-7,10-dimethoxy-3,4,4a,12a-tetrahydro-2H-naphtho[2,3-b]pyrano[2,3-e][2,5]oxathiine-6,11-dione] |  | 0 | 0 | 0 | 0 | 10.9 | 2.4 | 1.5 | 8.8 | 0.1 | 0.6 | 0.2 | Diameter of Zone Inhibition, S. aureus (S. aureus ATCC 21027; 100 µg/well, 24 h, incl. 7 mm well): + |
| 276 to 279 °C | COc1c(Cl)c(Cl)c(OC)c2c1C(=O)C1=C(S[C@@H]3O[C@H](CO)[C@H](O)[C@H](O)[C@H]3O1)C2=O [Compound 18b, (2R,3R,4S,4aR,12aS)-8,9-Dichloro-3,4-dihydroxy-2-(hydroxymethyl)-7,10-dimethoxy-3,4,4a,12a-tetrahydro-2H-naphtho[2,3-b]pyrano[2,3-e][2,5]oxathiine-6,11-dione] | 0 | 0 | 0 | 0 | 0 | 8 | 2.9 | 2.9 | 1.1 | 0.4 | 1 | 2.6 |  |
| 277 to 279 °C | COc1c(Cl)c(Cl)c(OC)c2c1C(=O)C1=C(S[C@@H]3OC[C@@H](O)[C@H](O)[C@H]3O1)C2=O [Compound 18c, (3R,4S,4aR,12aS)-8,9-Dichloro-3,4-dihydroxy-7,10-dimethoxy-3,4,4a,12a-tetrahydro-2H-naphtho[2,3-b]pyrano[2,3-e][2,5]oxathiine-6,11-dione] | < 20 | < 20 | 0 | 0 | 0 | 10.1 | 4.1 | 3.8 | 4.5 | 0.4 | 0.9 | 0.8 | Diameter of Zone Inhibition, E. coli (E. coli K-12; 100 µg/well): not active |
| 286 to 289 °C | COc1c(Cl)c(Cl)c(OC)c2c1C(=O)C1=C(S[C@@H]3OC[C@H](O)[C@H](O)[C@H]3O1)C2=O [Compound 18d, (3S,4S,4aR,12aS)-8,9-Dichloro-3,4-dihydroxy-7,10-dimethoxy-3,4,4a,12a-tetrahydro-2H-naphtho[2,3-b]pyrano[2,3-e][2,5]oxathiine-6,11-dione] | < 20 | < 20 | 0 | 0 | 0 | 8.7 | 2.8 | 4.3 | 4.1 | 0.5 | 1.5 | 1 | Diameter of Zone Inhibition, E. coli (E. coli K-12; 100 µg/well): not active |
| 348 to 350 °C (dec.) | O=C1C2=C(S[C@@H]3OC[C@@H](O)[C@H](O)[C@H]3O2)C(=O)c2c(O)cccc21 [Compound 19c, (3R,4S,4aR,12aS)-3,4,10-Trihydroxy-3,4,4a,12a-tetrahydro-2H-naphtho[2,3-b]pyrano[2,3-e][2,5]oxathiine-6,11-dione] | 8 ± 1 | 10 ± 2 | 0 | 0 | 0 | 4.9 | 13.3 | 5.9 | 7.4 | 1.2 | 0.4 | 0.8 |  |
